By GI50 is commonly meant the concentration that inhibits growth by half. The TGI is the concentration at which net growth stops. Read a high TGI as less potent growth arrest.

Drawing on PubChem BioAssay (NCI), this text covers GI50 and TGI for 13 compounds.

SMILES strings stand for the structures.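 Test compounds were applied to cells in 96-well plates for 48 hours at 5 doses. GI50: concentration for 50% inhibition of growth. TGI denotes the concentration required for complete inhibition of growth.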

Common to all, as to assay: DTP human tumour cell line panel, 48 h
Experiment [1] concerns CAKI-1 renal.
Experiment [2] deals with HCC-2998 colon.
Experiment [3] deals with HT29 colon.
The subject of experiment [4] is KM12 colon.
The test system of experiment [5] is MDA-MB-435.
The subject of experiment [6] is OVCAR-3 ovarian.
In experiment [7] the test system is OVCAR-4 ovarian.
The test system of experiment [8] is SF-268 CNS.
Experiment [9] deals with UACC-257 melanoma.
Experiment [10] concerns UO-31 renal.

For `Clc1nc(Oc2ccccc2)nc(-c2cn(-c3ccccc3)c3ccccc23)n1`, the GI50 is 5.69 µM in experiment [1]; 13.8 µM in experiment [2]; 3.36 µM in experiment [3]; 7.51 µM in experiment [4]; 6.49 µM in [5]; 3.37 µM in [6]. Also, the GI50 in [7] was 6.4 µM; in [8] it was 4.28 µM; in experiment [9], 9.2 µM; in experiment [10], 3.04 µM. Further, the TGI in experiment [1] was determined as 12.9 µM; in experiment [2] it was 27.3 µM; in [3], 11.5 µM; in [4], 19.9 µM; in experiment [5], 23.1 µM; in experiment [6], 10.2 µM. Further, the TGI in [7] was 18.7 µM; in experiment [8] it was 13.9 µM; in experiment [9], 25 µM; in [10], 7.95 µM.
`CC1(C)C2CC(c3ccncc3)ON2C(C)(C)N1O` (centres undefined): the TGI in experiment [1], in experiment [2], in experiment [3], in experiment [4], in experiment [5] and in experiment [6] was over 100 µM each time. Further, the TGI in experiment [7], in experiment [8], in experiment [9] and in experiment [10] was over 100 µM in each case.
`COc1cc2nc(-c3ccc(C(F)(F)F)cc3)cc(OCCCN3CCOCC3)c2cc1OC`: the GI50 in experiment [1] is 0.167 µM; in experiment [2] it was 1.41 µM; in [3] it was 0.54 µM; in experiment [4], 3.42 µM; in experiment [5], 1.2 µM; in experiment [6], 3.72 µM. The GI50 is 10.3 µM in [7], 5.7 µM in experiment [8], 1.67 µM in experiment [9] and 1.77 µM in [10]. Moreover, the TGI in [1] is 11.2 µM; in experiment [2], 5.57 µM; in experiment [3], 15.7 µM; in [4], 22 µM; in [5], 3.57 µM; in experiment [6], 18.4 µM. The TGI in experiment [7] came out at 23.2 µM; in experiment [8] it was 27.9 µM; in [9], 5.68 µM; in [10], 7.3 µM.
With `CN1CCN(Cc2ccc(NC(=O)c3cncc(C#Cc4cnc(N)c5ccc(F)cc45)c3)cc2C(F)(F)F)CC1`, the GI50 is 1.1 µM in experiment [1]; 1.7 µM in experiment [2]; 0.956 µM in experiment [3]; 0.0282 µM in experiment [4]; 1.24 µM in experiment [5]; 2.35 µM in experiment [6]. In addition, the GI50 in experiment [7] is 0.667 µM; in experiment [8] it was 1.79 µM; in experiment [9] it was 4.08 µM; in experiment [10], 1.15 µM. For the same compound, the TGI in [1] was found to be 4.57 µM; in [2], 5.98 µM; in experiment [3], 4.14 µM; in experiment [4], 4.63 µM; in experiment [5] it was 4.99 µM; in experiment [6] it was 7.21 µM. In addition, the TGI in [7] was determined as 4.23 µM; in experiment [8] it was 8.92 µM; in experiment [9], 8.63 µM; in experiment [10], 4.51 µM.
Regarding `O=c1oc2ccccc2c(O)c1/C=N\c1nc(-c2ccccc2)cs1`, the TGI in experiment [1] was 12.2 µM; in experiment [2] it was over 100 µM; in experiment [3] it was 32 µM; in [4], 39.1 µM; in experiment [5], 20.6 µM; in experiment [6], 30.8 µM. In addition, the TGI in experiment [7] is over 100 µM; in experiment [8], 31.1 µM; in [9], 23 µM; in experiment [10], 20.4 µM.
For the compound `Cc1ccc(C(=O)c2oc3ccc4c(C)cc(=O)oc4c3c2C)cc1`, the GI50 in [1] was 5.78 µM; in experiment [2] it was 24 µM; in experiment [3], 8.9 µM; in experiment [4], 63.3 µM; in [5], 5.95 µM; in [6], 14.7 µM. Moreover, the GI50 in [7] is 23.6 µM; in experiment [8], 10.4 µM; in experiment [9], 35.9 µM; in experiment [10], 11.4 µM. The TGI in [1] is over 100 µM; in experiment [2], over 100 µM; in experiment [3], over 100 µM; in experiment [4] it was over 100 µM; in experiment [5] it was over 100 µM; in experiment [6], 54.8 µM. Also, the TGI is 75.5 µM in [7], 98.8 µM in [8], over 100 µM in experiment [9] and over 100 µM in experiment [10].
As to `Oc1ccc(N=Nc2ccc(Cl)cc2)cc1`, the TGI stood at 36.6 µM in experiment [1]; 29.8 µM in experiment [2]; 32.2 µM in experiment [3]; 28.2 µM in experiment [4]; 29 µM in [5]; 55 µM in [6]. Further, the TGI in [7] is 61 µM; in [8] it was 34.5 µM; in experiment [9], 31.5 µM; in experiment [10], 27.7 µM.
For `COc1cc2c(cc1C)NC(=O)/C2=C\c1cc(OC)c(OC)c(OC)c1`, the GI50 in experiment [1], in experiment [2], in experiment [3], in experiment [4], in [5] and in [6] was over 100 µM in each case. Moreover, the GI50 is over 100 µM in experiment [7], over 100 µM in experiment [8], 91.2 µM in [9] and over 100 µM in experiment [10]. Also, the TGI in [1], in experiment [2], in experiment [3], in experiment [4], in [5] and in experiment [6] was over 100 µM throughout. Further, the TGI in experiment [7], in experiment [8], in experiment [9] and in experiment [10] was over 100 µM in each case.
Regarding `O=[N+]([O-])c1ccc2[nH]cc(-c3c4ccsc4cc4[nH]c5ccc([N+](=O)[O-])cc5c34)c2c1`, the GI50 in [1] is 0.758 µM; in experiment [2], 1.88 µM; in experiment [3], 1.21 µM; in experiment [4] it was 0.77 µM; in experiment [5], 0.145 µM; in experiment [6] it was 0.354 µM. Also, the GI50 in experiment [7] was 1.8 µM; in experiment [8], 1.39 µM; in experiment [9], 2.92 µM; in [10], 0.827 µM. Besides, the TGI in [1] is 9.94 µM; in experiment [2] it was 6.27 µM; in [3] it was 12.5 µM; in experiment [4], 4.21 µM; in experiment [5], 33.3 µM; in [6], 1.44 µM. Besides, the TGI in experiment [7] was 9.38 µM; in experiment [8], 18.5 µM; in experiment [9], 10.5 µM; in experiment [10], 5.14 µM.
On to `O=C(Nc1ccc(Cl)cc1)Nc1ccc(Cl)c(Cl)c1`, for which the GI50 in experiment [1] was 2.96 µM; in experiment [2], 3.9 µM; in experiment [3] it was 3.76 µM; in [4], 3.31 µM; in experiment [5] it was 3.4 µM; in [6], 3.31 µM. Besides, the GI50 is 3.88 µM in experiment [7], 4.36 µM in experiment [8], 3.76 µM in experiment [9] and 2.32 µM in [10]. In addition, the TGI in experiment [1] was over 100 µM; in experiment [2] it was 44.5 µM; in experiment [3], over 100 µM; in experiment [4] it was 13.8 µM; in experiment [5], over 100 µM; in experiment [6], over 100 µM. For the same compound, the TGI is over 100 µM in experiment [7], over 100 µM in [8], over 100 µM in [9] and 10.1 µM in experiment [10].
As to `c1ccc2c(c1)[I+]c1ccccc1-2`, the GI50 is over 50 µM in [1]; over 50 µM in experiment [2]; 38.6 µM in [3]; over 50 µM in experiment [4]; over 50 µM in experiment [5]; over 50 µM in experiment [6]. For the same compound, the GI50 was 21.6 µM in [7], over 50 µM in experiment [8], over 50 µM in experiment [9] and over 50 µM in experiment [10]. The TGI in [1], in experiment [2], in experiment [3], in experiment [4], in experiment [5] and in [6] was over 50 µM throughout. For the same compound, the TGI in experiment [7], in experiment [8], in [9] and in experiment [10] was over 50 µM in each case.
Consider `NC(=O)c1c[se]c(C2OC(CO)C(O)C2O)n1` (centres undefined), for which the TGI in experiment [1] is over 100 µM; in experiment [2] it was over 100 µM; in [3], over 100 µM; in experiment [4], over 45 µM; in [5], over 100 µM; in experiment [6], over 59 µM. The TGI in experiment [7], in experiment [8], in experiment [9] and in experiment [10] was over 100 µM in each case.
Regarding `COc1cc2c(cc1OCc1ccccc1)N=C[C@@H]1C/C(=C/C(=O)NCCCN3C(=O)c4cccc5cccc(c45)C3=O)CN1C2=O`, the GI50 in experiment [1] was 2.14 µM; in experiment [2], 0.142 µM; in experiment [3], 0.825 µM; in experiment [4], 1.09 µM; in experiment [5], 0.673 µM; in [6], 0.273 µM. The GI50 in experiment [7] was 2.63 µM; in [8], 0.314 µM; in experiment [9], 2.26 µM; in [10], 2.68 µM. Moreover, the TGI in experiment [1] is 19.7 µM; in experiment [2], 1.26 µM; in experiment [3] it was over 100 µM; in experiment [4], 6.59 µM; in experiment [5], 3.05 µM; in experiment [6], 3.72 µM. Further, the figures for the TGI in experiment [7], in experiment [8] and in experiment [10] were over 100 µM, 5.01 µM and over 20.7 µM, respectively.
